{"source": "paper PMC4503439", "about": "“Dose-Independent ADME Properties and Tentative Identification of Metabolites of α-Mangostin from Garcinia mangostana in Mice by Automated Microsampling and UPLC-MS/MS Methods” (PLoS ONE, 2015)", "key": {"[1]": {"assay": "Pharmacokinetics of α-MG after oral administration to mice (automated microsampling)", "type": "in vivo", "conditions": "for CL renal / Cmax / AUC / Tmax / half-life / Ae 0–24 h / GI 24 h: oral; for Tmax: median (ranges); for half-life: read-out: Terminal half-life", "description": "The surgical procedures were conducted under intramuscular injection anesthesia with 125 mg (1.5 mL)/kg of tiletamine HCl and zolazepam HCl mixture. The carotid artery (for intravenous and oral studies) and the jugular vein (for intravenous study) were cannulated using CX-2052S and CX-2022S catheters (BASi, West Lafayette, IN), respectively. After the mice awoke from anesthesia, the administration of α-MG and blood sampling were performed, [12], [31].\nα-MG (the same solution as used in the intravenous study) at doses of 10, 50 and 100 mg (10 mL)/kg was administered orally using a gastric gavage tube after overnight fasting with free access to water. A blood sample using the microsampling system was collected via the carotid artery at 0, 5, 15, 30, 60, 90, 120, 180, 240, 300 and 360 min after the oral administration of α-MG. Other procedures were similar to those in the intravenous study.\nThe analytical method for measuring α-MG was modified from a previous report. In sample preparation, 100 μL of acetonitrile containing 1 μg/mL IS was added to 50 μL of aliquot of the sample. After vortex-mixing and centrifugation (15000 × g for 10 min), 10 μL of the supernatant was directly injected into a reversed-phase C18 column (Cadenza CD-C18, 2 mm × 75 mm i.d., 3-μm particle size; Imtakt, USA) kept at 4°C until injection. The analytes were monitored using a API4000 triple quadrupole mass spectrometer (AB Sciex, Foster City, CA) equipped with a turbo ion-spray interface for electrospray ionization and operated in positive ion mode at 5500 V and 500°C at 50 L/min of nebulizing gas flow, 50 L/min of turbo ion-spray gas flow, 20 L/min of curtain gas flow, 5500 V of ring voltage and 5 Torr of collision gas (nitrogen) pressure.\nStandard methods were used to calculate the following pharmacokinetic parameters using a non-compartmental analysis (WinNonlin 2.1; Pharmasight Corp., Mountain View, CA). The extent of absolute oral bioavailability (F) was calculated by dividing the AUCoral/AUCiv at the same dose. The peak plasma concentration (C max) and time to reach C max (T max) were read directly from the […] data."}, "Caco2 cell line": {"tested_on": "Caco2 cell line", "set-up": "method as in PMID 19415666", "conditions": "cited from earlier work"}, "[2]": {"assay": "Tentative identification of metabolites from α-MG by UPLC-MS/MS", "type": "in vivo", "conditions": "mice after intravenous and oral α-MG; S9 fractions after 30-min incubation", "source_text": "Probable metabolites of α-MG were identified using the simultaneous full scan MS, MRM and MS/MS modes in a Waters UPLC-XEVO TQ system (Waters Corporation, Milford, USA) to confirm the structures of any metabolites. […] Structural elucidation of the metabolites was based on the fragmentation patterns of parent ion from the MS/MS mode at a collision energy of 10 to 20 eV generating daughter ions. The mass transitions for α-MG was m/z 411.21 → 354.85 (collision energy of 20 eV and collision cell exit potential of 25 eV, respectively). The unknown masses were further analyzed in MS/MS (daughter scan) mode with the electrospray ionization interface used to generate positive and negative ions at a capillary voltage of 3.0 kV, source temperature of 350°C and desolvation gas temperature of 650°C. The MRM methods for identification of possible metabolites generated by phase I and/or II reactions were included.\nThese compounds were separated on a reversed-phase C18 column (XSELECT CSH, 2.1 mm × 100 mm i.d., 1.7-μm particle size; Waters, Ireland) with a flow rate of 0.35 mL/min. The mobile phase composition was started at 95: 5 (v/v) of distilled water containing 0.1% formic acid (A) and acetonitrile (B) and gradually changed to 35: 65 (v/v) for 30 min, and then switched back to 95: 5 (v/v) for 40 min."}, "[3]": {"assay": "Tissue distribution of α-MG (tissue-to-plasma ratios) after intravenous and oral administration", "type": "in vivo, mice", "description": "The surgical procedures and administration of α-MG were conducted according to a previously reported method, [12], [31]. At 30 and 180 min after intravenous and oral administration of α-MG at doses of 10 mg/kg, as much blood as possible was collected via the carotid artery and each mouse was then sacrificed by cervical dislocation. Each liver, spleen, stomach, small intestine, large intestine, mesentery, kidney, fat, muscle, heart, lung, and brain was excised, weighted and homogenized with a volume of distilled water at 4 times the each organ. After centrifugation for 10 min, the supernatant was collected and all samples stored at –80°C until required."}, "[4]": {"assay": "Metabolism of α-MG in in vitro S9 fraction of liver", "type": "in vitro ADME, mice", "conditions": "30 min incubation, NADPH and UDPGA", "source_text": "The procedures for using S9 fractions from various tissues were similar those already reported. Each liver, stomach, small intestine, large intestine, lung, heart, kidney, fat, mesentery, muscle, and brain was excised after cervical dislocation (n = 6). Each tissue sample was rinsed with cold 0.9% NaCl-injectable solution, blotted dry with tissue paper and weighed. Then each tissue was homogenized with a volume of 0.25 M sucrose at 4 times of each tissue. Metabolic activity was initiated by adding a 100 μL aliquot of the 9000 × g supernatant fraction (S9) of each tissue to a 135 μL of Tris-buffer (pH 7.4), 5 μL of 0.9% NaCl-injectable solution with 1 or 20 μg/mL α-MG as a final concentration, 5 μL (1 mM) of NADPH and 5 μL (3.3 mM) of UDPGA. A 250 μL aliquot of acetonitrile (containing 1 μg/mL of the IS) was added after a 30 min incubation in a thermomixer (37°C and 500 opm) to terminate the enzyme activity. The amount of remaining α-MG in the S9 fraction of each tissue was determined using the HPLC-MS/MS analytical method."}, "P-glycoprotein": {"target": "T1, P-glycoprotein (Homo sapiens, UniProt P08183)", "T1 construct": "expressed in transfected cells; host or cells: MDCK-mdr1 (canine kidney cells carrying an mdr1 transgene; transfection is inferred from the cell line name)", "T1 sequence (P08183 whole entry)": "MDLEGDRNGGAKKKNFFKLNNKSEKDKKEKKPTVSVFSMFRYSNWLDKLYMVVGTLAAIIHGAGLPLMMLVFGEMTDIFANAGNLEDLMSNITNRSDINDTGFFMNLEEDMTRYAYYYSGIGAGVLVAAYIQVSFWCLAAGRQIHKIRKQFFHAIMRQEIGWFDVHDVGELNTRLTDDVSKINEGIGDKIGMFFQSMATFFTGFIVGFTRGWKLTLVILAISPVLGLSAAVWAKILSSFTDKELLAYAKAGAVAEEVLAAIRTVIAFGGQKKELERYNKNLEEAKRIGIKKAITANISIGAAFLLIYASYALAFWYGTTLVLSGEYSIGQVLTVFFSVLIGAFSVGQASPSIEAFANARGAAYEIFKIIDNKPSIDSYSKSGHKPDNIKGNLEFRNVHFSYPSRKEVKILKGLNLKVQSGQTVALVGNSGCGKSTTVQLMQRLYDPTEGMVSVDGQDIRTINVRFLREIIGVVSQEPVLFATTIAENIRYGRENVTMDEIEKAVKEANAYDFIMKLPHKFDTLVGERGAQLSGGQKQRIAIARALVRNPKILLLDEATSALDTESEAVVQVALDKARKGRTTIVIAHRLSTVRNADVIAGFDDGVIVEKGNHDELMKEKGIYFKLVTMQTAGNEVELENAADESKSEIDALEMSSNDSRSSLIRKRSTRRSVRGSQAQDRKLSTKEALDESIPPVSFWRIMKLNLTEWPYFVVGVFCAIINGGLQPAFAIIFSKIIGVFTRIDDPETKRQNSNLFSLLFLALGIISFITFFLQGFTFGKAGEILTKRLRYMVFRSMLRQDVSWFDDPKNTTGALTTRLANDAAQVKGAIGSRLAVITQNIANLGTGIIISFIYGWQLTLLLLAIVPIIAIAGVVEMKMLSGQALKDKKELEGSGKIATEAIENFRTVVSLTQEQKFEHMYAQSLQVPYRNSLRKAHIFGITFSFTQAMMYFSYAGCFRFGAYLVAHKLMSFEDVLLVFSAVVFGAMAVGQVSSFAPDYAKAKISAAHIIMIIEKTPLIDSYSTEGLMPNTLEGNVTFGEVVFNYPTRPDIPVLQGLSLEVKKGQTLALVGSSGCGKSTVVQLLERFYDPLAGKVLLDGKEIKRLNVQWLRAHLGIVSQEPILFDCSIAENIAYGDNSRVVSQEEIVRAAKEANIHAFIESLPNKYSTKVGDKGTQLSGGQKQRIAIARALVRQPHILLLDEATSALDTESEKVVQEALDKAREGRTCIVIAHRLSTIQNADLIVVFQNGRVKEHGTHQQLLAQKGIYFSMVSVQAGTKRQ", "assay": "P-glycoprotein substrate test in MDCK-mdr1 cell line", "type": "in vitro ADME", "conditions": "our unpublished data"}}, "note": "Entries after “also recorded” stand apart in the source; their conditions may differ. Where two headings read alike, the source gives them in different places.", "data": [{"smiles": "COc1c(O)cc2oc3cc(O)c(CC=C(C)C)c(O)c3c(=O)c2c1CC=C(C)C", "note": "[α-MG, α-Mangostin]", "values": [{"measurement": "first blood sampling time point at which detected in plasma", "setting": "[1]; after oral administration", "result": 5, "unit": "min"}, {"measurement": "F unabs ('true' fraction of the oral dose unabsorbed)", "setting": "[1]; calculated by reported equation assuming linear pharmacokinetics", "result": 0.434}, {"measurement": "bioavailability", "setting": "[1]; mouse, plasma, oral 10 mg/kg, AUCoral/AUCiv at the same dose, read-out: F (absolute oral bioavailability)", "result": 2.29, "unit": "%"}, {"measurement": "CL renal", "setting": "[1]; mouse, plasma, 10 mg/kg", "result": "0.0321 ± 0.0185", "unit": "L/h/kg"}, {"measurement": "Cmax", "setting": "[1]; mouse, plasma, 10 mg/kg", "result": "0.0403 ± 0.0307", "unit": "µg/mL"}, {"measurement": "AUC", "setting": "[1]; mouse, plasma, 10 mg/kg (n = 8)", "result": 0.13, "unit": "µg·h/mL"}, {"measurement": "Tmax", "setting": "[1]; mouse, plasma, 10 mg/kg", "result": 1, "unit": "h"}, {"measurement": "half-life", "setting": "[1]; mouse, plasma, 10 mg/kg", "result": "2.95 ± 1.18", "unit": "h"}, {"measurement": "CL renal", "setting": "[1]; mouse, plasma, 50 mg/kg", "result": "0.0328 ± 0.0185", "unit": "L/h/kg"}, {"measurement": "Cmax", "setting": "[1]; mouse, plasma, 50 mg/kg", "result": "0.242 ± 0.035", "unit": "µg/mL"}, {"measurement": "AUC", "setting": "[1]; mouse, plasma, 50 mg/kg (n = 7)", "result": 0.622, "unit": "µg·h/mL"}, {"measurement": "Tmax", "setting": "[1]; mouse, plasma, 50 mg/kg", "result": 0.5, "unit": "h"}, {"measurement": "half-life", "setting": "[1]; mouse, plasma, 50 mg/kg", "result": "3.28 ± 1.35", "unit": "h"}, {"measurement": "CL renal", "setting": "[1]; mouse, plasma, 100 mg/kg", "result": "0.0251 ± 0.0137", "unit": "L/h/kg"}, {"measurement": "Cmax", "setting": "[1]; mouse, plasma, 100 mg/kg", "result": "0.709 ± 0.397", "unit": "µg/mL"}, {"measurement": "AUC", "setting": "[1]; mouse, plasma, 100 mg/kg (n = 9)", "result": 1.39, "unit": "µg·h/mL"}, {"measurement": "Tmax", "setting": "[1]; mouse, plasma, 100 mg/kg", "result": 1, "unit": "h"}, {"measurement": "half-life", "setting": "[1]; mouse, plasma, 100 mg/kg", "result": "2.52 ± 0.822", "unit": "h"}, {"measurement": "Ae 0–24 h", "setting": "[1]; 10 mg/kg", "result": "0.0255 ± 0.0107 % of dose"}, {"measurement": "GI 24 h", "setting": "[1]; 10 mg/kg", "result": "43.5 ± 10.6 % of dose"}, {"measurement": "Ae 0–24 h", "setting": "[1]; 50 mg/kg", "result": "0.0315 ± 0.0241 % of dose"}, {"measurement": "GI 24 h", "setting": "[1]; 50 mg/kg", "result": "40.2 ± 11.6 % of dose"}, {"measurement": "Ae 0–24 h", "setting": "[1]; 100 mg/kg", "result": "0.0270 ± 0.0113 % of dose"}, {"measurement": "GI 24 h", "setting": "[1]; 100 mg/kg", "result": "41.2 ± 4.51 % of dose"}, {"measurement": "absorption in the Caco2 cell line", "setting": "Caco2 cell line", "result": "low absorption"}, {"measurement": "Source (samples in which detected)", "setting": "[2]", "result": "plasma, urine, feces, liver, small intestine, S9 fractions of liver and small intestine"}, {"measurement": "tissue-to-plasma (T/P) ratio", "setting": "[3]; intravenous 10 mg/kg, kidney, at 30 min", "result": "greater than unity"}, {"measurement": "tissue-to-plasma (T/P) ratio", "setting": "[3]; intravenous 10 mg/kg, large intestine and fat, at 180 min", "result": "greater than unity"}, {"measurement": "tissue-to-plasma (T/P) ratio", "setting": "[3]; intravenous 10 mg/kg, liver, small intestine and lung, at 30 and 180 min", "result": "greater than unity"}, {"measurement": "tissue-to-plasma (T/P) ratio", "setting": "[3]; oral 10 mg/kg, all tissues studied except the brain, at 30 and 180 min, 10 mg/kg", "result": "greater than unity; also recorded: above unity"}, {"measurement": "disappearance of spiked α-MG", "setting": "[4]; liver S9, 1 μg/mL", "result": 57.3, "unit": "%"}, {"measurement": "disappearance of spiked α-MG", "setting": "[4]; liver S9, 20 μg/mL", "result": 51.4, "unit": "%"}, {"measurement": "substrate of P-glycoprotein", "setting": "P-glycoprotein", "result": "substrate of P-glycoprotein"}]}]}
